“Also recorded” adds a separate entry of the source. Like-named read-outs stand apart in the source and are kept apart here. Numbered stars: 1 amine (or outer) side, 2 acyl side, 3 side chain; on linkers, the order of the positions; unused ones are H or OH. Square brackets hold non-standard residues; d marks the D form. Peptide text beside a SMILES is read from it. * marks the point of attachment. UDPMurNAc = CC(=O)N[C@H]1[C@@H](OP(=O)(O)OP(=O)(O)OC[C@H]2O[C@@H](n3ccc(=O)[nH]c3=O)[C@H](O)[C@@H]2O)O[C@H](CO)[C@@H](O)[C@@H]1O[C@H](C)C(=O)*; d(γGlu) = O=C(O)[C@@H](CCC(=O)[*:2])N[*:1]; NBD = O=[N+]([O-])c1ccc(*)c2nonc12; GABA = NCCCC(=O)O
Tests used:
MraYBS [1] = biological target: T1, MraYBS (Bacillus subtilis, UniProt Q03521); assay: Biolayer interferometry-based (BLI) binding assay; conditions: for binding affinity with MraYBS: concentrations up to 500 μM
T1 construct: MBP; made in house
T1 sequence (Q03521 1-324): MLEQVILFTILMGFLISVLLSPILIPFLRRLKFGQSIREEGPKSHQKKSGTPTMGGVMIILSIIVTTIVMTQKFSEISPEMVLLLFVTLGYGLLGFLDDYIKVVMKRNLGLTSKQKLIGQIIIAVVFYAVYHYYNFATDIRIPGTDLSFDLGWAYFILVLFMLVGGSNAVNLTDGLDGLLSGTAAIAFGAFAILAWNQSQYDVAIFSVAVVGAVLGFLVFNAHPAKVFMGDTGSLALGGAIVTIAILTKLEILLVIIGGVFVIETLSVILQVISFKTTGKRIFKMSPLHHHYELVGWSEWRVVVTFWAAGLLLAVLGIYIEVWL
Procedure: MraYBS binding was measured in a biolayer interferometry-based binding assay on Octet Red96® instrument (ForteBio, Inc.). The biotinylation of MraYBS was performed with using EZ-Link® Sulfo-NHS-LC-LC-Biotin Kit (Thermo Fisher Scientific, Inc.). In general, MraYBS (1.7 mg/mL) in 50 μL reaction buffer (0.01 M HEPES pH 7.4, 0.15 M NaCl, 0.005% v/v Surfactant P20), was added by the sulfo-NHS-LC-LC-biotin reagent (1 mM, 1 μL). After incubating for 30 minutes at room temperature, the biotinylated-MraYBS was purified by a Zeba^TM Spin Desalting Columns, 7K MWCO (Thermo Fisher Scientific, Inc.), and the buffer was changed to the binding buffer (30 mM Tris, 10 mM MgCl2, 10 mM NaCl, 0.1 mM Tween-20, pH 8.0) during the purification. Comparing to the non-biotinylated-MraYBS, the biotinylated-MraYBS remains 62% activity measured by the HPLC-based MraY functional assay in 1 h reaction. The biotinylated MraYBS was then immobilized to Super Streptavidin (SSA) Octet tips (ForteBio, Inc.) for reaching a fixed signal of 3 nm. Before the assay starting, the MraYBS-labeled SSA sensors were pre-soaked in binding buffer for 30 min. The association of Park’s analogues with MraYBS were measured by incubating MraYBS-labeled SSA sensors in binding buffer containing various concentrations of samples in Octet Red system. The dissociation was monitored by moving the ligand biosenors from the analyte solution to binding buffer. The dissociation constants (KD) were obtained by nonlinear regression analysis using the specific binding model with the GraphPad Prism program (GraphPad Software, San Diego, CA).

MraYBS [2] = biological target: T1, MraYBS; assay: HPLC-based MraY functional assay (substrate activity); format: biochemical; conditions: for substrate under extreme reaction conditions: Park's nucleotides 10 μM, MraYBS 40 μg/mL, C55P 1 mM, 24 h; for substrate under extreme reaction conditions / conversion % / recognized as a MraYBS substrate: 37 °C; for conversion %: lipid phosphates 200 μM, NBD-Park's nucleotide (6) 10 μM, 1 h, from consumption of 6, n = 3, average ± SD; for conversion % / recognized as a MraYBS substrate: MraYBS 10 μg/mL; for recognized as a MraYBS substrate: analogue 10 μM, C55P 200 μM
Procedure: The purified MraY from Bacillus subtilis was prepared as described in our previous reports. […] […] The reaction mixtures were added by uridine (0.01 mg/mL) as the internal standard and heated to 100 °C to stop the transferring reaction. The samples were analyzed by RP-C18 HPLC with gradient elution of 0.25 M NH4HCO3(aq)/15% MeOH in water (100:0 to 0:100) at a flow rate of 1 mL/min over 45 min, and the peaks of substrates were monitored at UV 260 nm. For 6 and 11–17, the reaction mixture containing MraYBS (10 μg/mL), C55P (200 μM), 6-(7-Nitro-2,1,3-benzoxadiazol-4-ylamino)hexanoic acid (5 μM, internal standard) in 10 μL reaction buffer (30 mM Tris, 10 mM MgCl2, 10 mM NaCl, 0.1 mM Tween-20, 2.5% DMSO, pH 8.0) were pre-incubated at 37 °C for 15 min. […] The reaction mixtures were heated to 100 °C to stop the transferring reaction, and samples were analyzed by an anion-exchange column (SAX1, Supelco Co., 5 μm, 4.6 × 250 mm) with a linear gradient elution of NH4OAc (20 mM to 1 M in MeOH) at a flow rate of 1.0 mL/min over 30 min. The fluorescent substrates were monitored with λex 466 nm/λem 535 nm by fluorescence detector.

MraYBS [3] = biological target: T1, MraYBS; assay: MraY fluorescence enhancement assay (kinetics, inhibition); format: biochemical; conditions: for Inhibition Mode: Lineweaver-Burk
Procedure: Determine kinetic parameters by MraY fluorescence enhancement assay. The fluorescence enhancement assay was performed in 384-well plate as described by Bugg et al. with slight modifications.5 The reaction mixture containing MraYBS (10 μg/mL), C55P (200 μM) in 30 μL reaction buffer (30 mM Tris, 10 mM MgCl2, 10 mM NaCl, 0.1 mM Tween-20, 2.5% DMSO, pH 8.0) were pre-incubated at 37 °C for 15 min. The reactions were initiated by the addition of various concentrations of NBD-Park’s nucleotide 6 (0 to 160 μM). For inhibition study, a various concentrations of inhibitors were added before the addition of substrate 6. The continuous fluorescence increase over 60 min was monitored with λex 466 nm/λem 535 nm by fluorescence microplate reader (SpectraMax M5, Molecular Devices, LLC) at 37 °C. Linear regressions of increased fluorescent units (FLU) versus time (min) were used to calculate the initial velocities for each reaction. The kinetic parameters values (Ki, KM, and Vmax) were obtained by nonlinear regression analysis using the […] equation with the GraphPad Prism program (GraphPad Software, San

CC(=O)N[C@H]1[C@@H](OP(=O)(O)OP(=O)(O)OC[C@H]2O[C@@H](n3ccc(=O)[nH]c3=O)[C@H](O)[C@@H]2O)O[C@H](CO)[C@@H](O)[C@@H]1O[C@H](C)C(=O)N[C@@H](C)C(=O)NCCCC(=O)N[C@@H](CCCCNc1ccc([N+](=O)[O-])c2nonc12)C(=O)N[C@H](C)C(=O)N[C@H](C)C(=O)O [Compound 16] (UDPMurNAc-A[GABA]K(NBD)[dA][dA]-OH)
binding affinity with MraYBS (MraYBS [1]): no proper binding affinity
relative activity compared to 6 (MraYBS [2]; after 1 h reaction): < 10%

CC(=O)N[C@H]1[C@@H](OP(=O)(O)OP(=O)(O)OC[C@H]2O[C@@H](n3ccc(=O)[nH]c3=O)[C@H](O)[C@@H]2O)O[C@H](CO)[C@H](O)[C@@H]1O[C@H](C)C(=O)N[C@@H](C)C(=O)N[C@H](CCC(=O)N[C@@H](CCCCNc1ccc([N+](=O)[O-])c2nonc12)C(=O)N[C@H](C)C(=O)N[C@H](C)C(=O)O)C(=O)O [Compound 11]
substrate under extreme reaction conditions (MraYBS [2]): did not function as substrates; also recorded: not be a substrate

CC(=O)N[C@H]1[C@@H](OP(=O)(O)OP(=O)(O)OC[C@H]2O[C@@H](n3ccc(=O)[nH]c3=O)[C@H](O)[C@@H]2O)O[C@H](CO)[C@@H](O)[C@@H]1O[C@H](C)C(=O)N[C@@H](C)C(=O)N[C@H](CCC(=O)N[C@@H](CCCCN)C(=O)N[C@H](C)C(=O)N[C@H](C)C(=O)O)C(=O)O [Compound 5, Park’s nucleotide]
Kd (MraYBS [1]): 120 µM
substrate consumption (MraYBS [2]; C55P (200 μM) as polyprenyl phosphate substrate, substrate 10 μM, within 1 h (60 min)): completely consumed

CC(=O)N[C@H]1[C@@H](OP(=O)(O)OP(=O)(O)OC[C@H]2O[C@@H](n3ccc(=O)[nH]c3=O)[C@H](O)[C@@H]2O)O[C@H](CO)[C@@H](O)[C@@H]1O[C@H](C)C(=O)N[C@@H](C)C(=O)N[C@H](CCC(=O)N[C@@H](CCCCN)C(=O)O)C(=O)O [Compound 7]
activity reduced compared with 5 (MraYBS [2]; after 1 h reaction): 17%

CC(C)=CCCC(C)=CCCC(C)=CCCC(C)=CCO [Tetraprenol, reference compound]
conversion % (MraYBS [2]): 16 ± 5%

CC(=O)N[C@H]1[C@@H](OP(=O)(O)OP(=O)(O)OC[C@H]2O[C@@H](n3cc(NC(=O)Cc4ccc(C)cc4)c(=O)[nH]c3=O)[C@H](O)[C@@H]2O)O[C@H](CO)[C@H](O)[C@@H]1O[C@H](C)C(=O)N[C@@H](C)C(=O)O [Compound 21]
inhibition at 1000 µM (MraYBS [3]): 30%
Kd (MraYBS [1]; BLI, without C55P): > 250 µM
binding interactions with MraYBS (MraYBS [1]; concentration up to 250 μM): no sufficient binding interactions

CC(C)=CCC/C(C)=C/CC/C(C)=C/CC/C(C)=C/CC/C(C)=C/CC/C(C)=C/CC/C(C)=C/CO [Heptaprenol, reference compound]
conversion % (MraYBS [2]): 55 ± 3%

CC(=O)N[C@H]1[C@@H](OP(=O)(O)OP(=O)(O)OC[C@H]2O[C@@H](n3cc(N)c(=O)[nH]c3=O)[C@H](O)[C@@H]2O)O[C@H](CO)[C@@H](O)[C@@H]1O[C@H](C)C(=O)N[C@@H](C)C(=O)O [Compound 18]
inhibitory activity (MraYBS [3]; at 1 mM): no inhibition activity

CC(=O)N[C@H]1[C@@H](OP(=O)(O)OP(=O)(O)OC[C@H]2O[C@@H](n3ccc(=O)[nH]c3=O)[C@H](O)[C@@H]2O)O[C@H](CO)[C@@H](O)[C@@H]1O[C@H](C)C(=O)N[C@@H](C)C(=O)N[C@H](CCC(=O)O)C(=O)O [Compound 8]
substrate activity remained (MraYBS [2]; after 1 h reaction, compared with 5): 40%

CC(C)=CCC/C(C)=C/CC/C(C)=C/CC/C(C)=C/CC/C(C)=C/CC/C(C)=C/CC/C(C)=C/CC/C(C)=C/CC/C(C)=C/CO [Solanesol, reference compound]
conversion % (MraYBS [2]): 12 ± 2%

CC(=O)N[C@H]1[C@@H](OP(=O)(O)OP(=O)(O)OC[C@H]2O[C@@H](n3ccc(=O)[nH]c3=O)[C@H](O)[C@@H]2O)O[C@H](CO)[C@@H](O)[C@@H]1O [Compound 10, UDP-GlcNAc, reference compound]
recognized as a MraYBS substrate (MraYBS [2]): not substrates

CC(C)=CCC/C(C)=C/CC/C(C)=C/CC/C(C)=C/CC/C(C)=C/CC/C(C)=C/CC/C(C)=C/CC/C(C)=C/CC/C(C)=C/CC/C(C)=C/CC/C(C)=C/CO [Undecaprenol, reference compound]
conversion % (MraYBS [2]): 96 ± 1%

CC(=O)N[C@H]1[C@@H](OP(=O)(O)OP(=O)(O)OC[C@H]2O[C@@H](n3ccc(=O)[nH]c3=O)[C@H](O)[C@@H]2O)O[C@H](CO)[C@@H](O)[C@@H]1O[C@H](C)C(=O)N[C@@H](C)C(=O)O [Compound 9]
binding affinity with MraYBS (MraYBS [1]): no proper binding affinity
recognized as a MraYBS substrate (MraYBS [2]): not substrates

Tunicamycins [reference compound]
Ki (MraYBS [3]; 6 as substrate, C55P 200 μM, read-out: Ki): 9 ± 1 µM
Inhibition Mode (MraYBS [3]; 6 as substrate): Competitive
Kd (MraYBS [1]; BLI, without C55P, read-out: KD): 93 ± 16 µM

CC(C)=CCC/C(C)=C/CC/C(C)=C/CC/C(C)=C/CC/C(C)=C/CC/C(C)=C/CO [Hexaprenol, reference compound]
conversion % (MraYBS [2]): 27 ± 6%

CC(=O)N[C@H]1[C@@H](OP(=O)(O)OP(=O)(O)OC[C@H]2O[C@@H](n3cc(N)c(=O)[nH]c3=O)[C@H](O)[C@@H]2O)O[C@H](CO)[C@@H](O)[C@@H]1O[C@H](C)C(=O)N[C@@H](C)C(=O)N[C@H](CCC(=O)N[C@@H](CCCCNc1ccc([N+](=O)[O-])c2nonc12)C(=O)N[C@H](C)C(=O)N[C@H](C)C(=O)O)C(=O)O [Compound 17]
substrate under extreme reaction conditions (MraYBS [2]): did not function as substrates; also recorded: not be a substrate

CC(=O)N[C@H]1[C@@H](OP(=O)(O)OP(=O)(O)OC[C@H]2O[C@@H](n3ccc(=O)[nH]c3=O)[C@H](O)[C@@H]2O)O[C@H](CO)[C@@H](O)[C@@H]1O[C@H](C)C(=O)NCC(=O)N[C@H](CCC(=O)N[C@@H](CCCCNc1ccc([N+](=O)[O-])c2nonc12)C(=O)N[C@H](C)C(=O)N[C@H](C)C(=O)O)C(=O)O [Compound 15] (UDPMurNAc-G[d(γGlu)]K(NBD)[dA][dA]-OH)
relative activity compared to 6 (MraYBS [2]; after 1 h reaction): about 80%

CC(=O)Nc1cn([C@@H]2O[C@H](COP(=O)(O)OP(=O)(O)O[C@H]3O[C@H](CO)[C@@H](O)[C@H](O[C@H](C)C(=O)N[C@@H](C)C(=O)O)[C@H]3NC(C)=O)[C@@H](O)[C@H]2O)c(=O)[nH]c1=O [Compound 19]
Ki (MraYBS [3]): 764 ± 127 µM
Inhibition Mode (MraYBS [3]; 6 as substrate): Competitive
Kd (MraYBS [1]): 281 ± 97 µM
